# Reference: PubChem BioAssay AID2060495 (Molecular Pharmacology Branch, DTP, NCI, 2025)
# Tested on: 521955-158-R2-J5-PDC complex spheroid viability
# Test: Anticancer human tumor 521955-158-R2-J5-PDC patient-derived pancreatic carcinoma cell line growth inhibition [GQUAD]
# Conditions: for IC50: curve of first compound; for viability, T/C: stronger effect = lower value
# Procedure, shortened: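 Multi-cell-type spheroids of tumor cells with HUVEC and mesenchymal stem cells, treated with drug combinations. Concentrations descend in half-log steps from near clinical Cmax, or from 10 microM where Cmax is unknown; viability read-out.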
# [1] = second compound 0.0316 µM, first compound 0.0316 µM
# [2] = second compound 0.0316 µM, first compound 0.1 µM
# [3] = second compound 0.0316 µM, first compound 0.316 µM
# [4] = second compound 0.0316 µM, first compound 1 µM
# [5] = second compound 0.0316 µM, first compound 3.16 µM
# [6] = second compound 0.0316 µM, first compound 10 µM
# [7] = second compound 0.1 µM, first compound 0.0316 µM
# [8] = second compound 0.1 µM, first compound 0.1 µM
# [9] = second compound 0.1 µM, first compound 0.316 µM
# [10] = second compound 0.1 µM, first compound 1 µM
# [11] = second compound 0.1 µM, first compound 3.16 µM
# [12] = second compound 0.1 µM, first compound 10 µM
# [13] = second compound 0.316 µM, first compound 0.0316 µM
# [14] = second compound 0.316 µM, first compound 0.1 µM
# [15] = second compound 0.316 µM, first compound 0.316 µM
# [16] = second compound 0.316 µM, first compound 1 µM
# [17] = second compound 0.316 µM, first compound 3.16 µM
# [18] = second compound 0.316 µM, first compound 10 µM
# [19] = second compound 1 µM, first compound 0.0316 µM
# [20] = second compound 1 µM, first compound 0.1 µM
# [21] = second compound 1 µM, first compound 0.316 µM
# [22] = second compound 1 µM, first compound 1 µM
# [23] = second compound 1 µM, first compound 3.16 µM
# [24] = second compound 1 µM, first compound 10 µM
# [25] = second compound 3.16 µM, first compound 0.0316 µM
# [26] = second compound 3.16 µM, first compound 0.1 µM
# [27] = second compound 3.16 µM, first compound 0.316 µM
# [28] = second compound 3.16 µM, first compound 1 µM
# [29] = second compound 3.16 µM, first compound 3.16 µM
# [30] = second compound 3.16 µM, first compound 10 µM
# [31] = second compound 10 µM, first compound 0.0316 µM
# [32] = second compound 10 µM, first compound 0.1 µM
# [33] = second compound 10 µM, first compound 0.316 µM
# [34] = second compound 10 µM, first compound 1 µM
# [35] = second compound 10 µM, first compound 3.16 µM
# [36] = second compound 10 µM, first compound 10 µM
# 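Also: spheroids exposed to agents for one week before reading.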
# 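For viability, T/C in this document: 100% = DMSO vehicle control viability.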
compound,measurement,setting,value
Nc1ccn(C2OC(CO)C(O)C2(F)F)c(=O)n1 (stereo not drawn) + Cc1cnc(CNC(=O)c2c(=O)c3ccc(N4CCCN(C)CC4)nc3n3c2sc2ccccc23)cn1,IC50,second compound 0.0316 µM,159 nM
same,IC50,second compound 0.1 µM,85.7 nM
same,IC50,second compound 0.316 µM,< 31.6 nM
same,IC50,second compound 1 µM,< 31.6 nM
same,IC50,second compound 3.16 µM,< 31.6 nM
same,IC50,second compound 10 µM,< 31.6 nM
same,"viability, T/C",[1],67.4%
same,"viability, T/C",[2],63.6%
same,"viability, T/C",[3],30.6%
same,"viability, T/C",[4],12.9%
same,"viability, T/C",[5],8.38%
same,"viability, T/C",[6],8.43%
same,"viability, T/C",[7],57.4%
same,"viability, T/C",[8],51.2%
same,"viability, T/C",[9],29%
same,"viability, T/C",[10],20.9%
same,"viability, T/C",[11],7.8%
same,"viability, T/C",[12],7.55%
same,"viability, T/C",[13],36%
same,"viability, T/C",[14],27.7%
same,"viability, T/C",[15],20.9%
same,"viability, T/C",[16],12.8%
same,"viability, T/C",[17],9.07%
same,"viability, T/C",[18],7.49%
same,"viability, T/C",[19],20.2%
same,"viability, T/C",[20],19.9%
same,"viability, T/C",[21],15.2%
same,"viability, T/C",[22],9.52%
same,"viability, T/C",[23],9.75%
same,"viability, T/C",[24],8.51%
same,"viability, T/C",[25],16%
same,"viability, T/C",[26],17.8%
same,"viability, T/C",[27],15.9%
same,"viability, T/C",[28],8.29%
same,"viability, T/C",[29],4.92%
same,"viability, T/C",[30],2.37%
same,"viability, T/C",[31],17%
same,"viability, T/C",[32],15.7%
same,"viability, T/C",[33],15.1%
same,"viability, T/C",[34],6.25%
same,"viability, T/C",[35],4.12%
same,"viability, T/C",[36],5.49%
Cc1[nH]c2ccccc2c1CCNCc1ccc(/C=C/C(=O)NO)cc1 + Cc1cnc(CNC(=O)c2c(=O)c3ccc(N4CCCN(C)CC4)nc3n3c2sc2ccccc23)cn1,IC50,second compound 0.0316 µM,71.3 nM
same,IC50,second compound 0.1 µM,35.1 nM
same,IC50,second compound 0.316 µM,< 0.999 nM
same,IC50,second compound 1 µM,< 0.999 nM
same,IC50,second compound 3.16 µM,< 0.999 nM
same,IC50,second compound 10 µM,< 0.999 nM
same,"viability, T/C","second compound 0.0316 µM, first compound 0.000999 µM",76.2%
same,"viability, T/C","second compound 0.0316 µM, first compound 0.00316 µM",66.1%
same,"viability, T/C","second compound 0.0316 µM, first compound 0.00999 µM",92.3%
same,"viability, T/C",[1],75.6%
same,"viability, T/C","second compound 0.0316 µM, first compound 0.0999 µM",39.2%
same,"viability, T/C",[3],5.94%
same,"viability, T/C","second compound 0.1 µM, first compound 0.000999 µM",64.7%
same,"viability, T/C","second compound 0.1 µM, first compound 0.00316 µM",57.7%
same,"viability, T/C","second compound 0.1 µM, first compound 0.00999 µM",57.1%
same,"viability, T/C",[7],54%
same,"viability, T/C","second compound 0.1 µM, first compound 0.0999 µM",33.2%
same,"viability, T/C",[9],2.12%
same,"viability, T/C","second compound 0.316 µM, first compound 0.000999 µM",26.8%
same,"viability, T/C","second compound 0.316 µM, first compound 0.00316 µM",31.2%
same,"viability, T/C","second compound 0.316 µM, first compound 0.00999 µM",34%
same,"viability, T/C",[13],37.1%
same,"viability, T/C","second compound 0.316 µM, first compound 0.0999 µM",26.6%
same,"viability, T/C",[15],1.88%
same,"viability, T/C","second compound 1 µM, first compound 0.000999 µM",16.8%
same,"viability, T/C","second compound 1 µM, first compound 0.00316 µM",21.2%
same,"viability, T/C","second compound 1 µM, first compound 0.00999 µM",18.5%
same,"viability, T/C",[19],20.1%
same,"viability, T/C","second compound 1 µM, first compound 0.0999 µM",18.6%
same,"viability, T/C",[21],0.1%
same,"viability, T/C","second compound 3.16 µM, first compound 0.000999 µM",12.1%
same,"viability, T/C","second compound 3.16 µM, first compound 0.00316 µM",14.4%
same,"viability, T/C","second compound 3.16 µM, first compound 0.00999 µM",14.7%
same,"viability, T/C",[25],13.9%
same,"viability, T/C","second compound 3.16 µM, first compound 0.0999 µM",6.38%
same,"viability, T/C",[27],0.11%
same,"viability, T/C","second compound 10 µM, first compound 0.000999 µM",9.65%
same,"viability, T/C","second compound 10 µM, first compound 0.00316 µM",11.8%
same,"viability, T/C","second compound 10 µM, first compound 0.00999 µM",14.8%
same,"viability, T/C",[31],13.8%
same,"viability, T/C","second compound 10 µM, first compound 0.0999 µM",5.03%
same,"viability, T/C",[33],0.18%
C=CC(=O)N1CCN(c2nc(=O)n(-c3c(C)ccnc3C(C)C)c3nc(-c4c(O)cccc4F)c(F)cc23)C(C)C1 (stereo not drawn) + Cc1cnc(CNC(=O)c2c(=O)c3ccc(N4CCCN(C)CC4)nc3n3c2sc2ccccc23)cn1,IC50,second compound 0.0316 µM,> 10000 nM
same,IC50,second compound 0.1 µM,> 10000 nM
same,IC50,second compound 0.316 µM,< 31.6 nM
same,IC50,second compound 1 µM,< 31.6 nM
same,IC50,second compound 3.16 µM,< 31.6 nM
same,IC50,second compound 10 µM,< 31.6 nM
same,"viability, T/C",[1],81%
same,"viability, T/C",[2],70.8%
same,"viability, T/C",[3],84.4%
same,"viability, T/C",[4],79.2%
same,"viability, T/C",[5],77%
same,"viability, T/C",[6],72.2%
same,"viability, T/C",[7],60.3%
same,"viability, T/C",[8],55.3%
same,"viability, T/C",[9],56.1%
same,"viability, T/C",[10],57.3%
same,"viability, T/C",[11],61.5%
same,"viability, T/C",[12],52.9%
same,"viability, T/C",[13],36.6%
same,"viability, T/C",[14],32.1%
same,"viability, T/C",[15],33.7%
same,"viability, T/C",[16],46.9%
same,"viability, T/C",[17],49.1%
same,"viability, T/C",[18],32.1%
same,"viability, T/C",[19],21.5%
same,"viability, T/C",[20],20.2%
same,"viability, T/C",[21],19.7%
same,"viability, T/C",[22],26.2%
same,"viability, T/C",[23],21.7%
same,"viability, T/C",[24],19.3%
same,"viability, T/C",[25],22.8%
same,"viability, T/C",[26],17.6%
same,"viability, T/C",[27],19.9%
same,"viability, T/C",[28],20.5%
same,"viability, T/C",[29],25%
same,"viability, T/C",[30],18.4%
same,"viability, T/C",[31],18.4%
same,"viability, T/C",[32],18.5%
same,"viability, T/C",[33],20.9%
same,"viability, T/C",[34],18%
same,"viability, T/C",[35],13.7%
same,"viability, T/C",[36],15.8%
CCCS(=O)(=O)Nc1ccc(F)c(C(=O)c2c[nH]c3ncc(-c4ccc(Cl)cc4)cc23)c1F + Cc1[nH]c2ccc(F)cc2c1-c1nc2c3cccnc3c3ncccc3c2[nH]1,IC50,second compound 0.0316 µM,> 10000 nM
same,IC50,second compound 0.1 µM,> 10000 nM
same,IC50,second compound 0.316 µM,> 10000 nM
same,IC50,second compound 1 µM,> 10000 nM
same,IC50,second compound 3.16 µM,> 10000 nM
same,IC50,second compound 10 µM,> 10000 nM
same,"viability, T/C",[1],103%
same,"viability, T/C",[2],95.9%
same,"viability, T/C",[3],79.8%
same,"viability, T/C",[4],105%
same,"viability, T/C",[5],198%
same,"viability, T/C",[6],112%
same,"viability, T/C",[7],104%
same,"viability, T/C",[8],86%
same,"viability, T/C",[9],72.1%
same,"viability, T/C",[10],97.4%
same,"viability, T/C",[11],226%
same,"viability, T/C",[12],96.9%
same,"viability, T/C",[13],97.2%
same,"viability, T/C",[14],95.5%
same,"viability, T/C",[15],78.6%
same,"viability, T/C",[16],101%
same,"viability, T/C",[17],226%
same,"viability, T/C",[18],105%
same,"viability, T/C",[19],99.9%
same,"viability, T/C",[20],88.6%
same,"viability, T/C",[21],78.1%
same,"viability, T/C",[22],102%
same,"viability, T/C",[23],272%
same,"viability, T/C",[24],95.2%
same,"viability, T/C",[25],92.3%
same,"viability, T/C",[26],76%
same,"viability, T/C",[27],65%
same,"viability, T/C",[28],220%
same,"viability, T/C",[29],265%
same,"viability, T/C",[30],99.9%
same,"viability, T/C",[31],99.8%
same,"viability, T/C",[32],84.9%
same,"viability, T/C",[33],64.9%
same,"viability, T/C",[34],173%
same,"viability, T/C",[35],258%
same,"viability, T/C",[36],84.6%
